US5985908A, “MCBI analogs of CC-1065 and the duocarmycins” (The Scripps Research Institute, priority 1998, dated 1999)
“Also recorded” adds a separate entry of the source.

How the values were obtained:
[1] = test system: w794 DNA (SV40 DNA fragment, 144 bp); test: DNA alkylation, thermally-induced strand cleavage of w794 DNA; type: biochemical; details: for selectivity and efficiency of DNA alkylation, unnatural enantiomers compared: 72 hours, pairwise comparison; for concentration of detectable DNA alkylation, natural enantiomers: w794, 25° C., 24 hours (FIG. 17); for concentration of detectable DNA alkylation, unnatural enantiomers: w794, 37° C., 72 hours (FIG. 13)
Method: FIG. 13 illustrates thermally-induced strand cleavage of double-stranded DNA (SV40 DNA fragment, 144 bp, nucleotide no. 5238-138, clone w794) after 72 hours incubation of agent-DNA at 37° C. followed by removal of unbound agent and 30 minutes incubation at 100° C.; 8% denaturing PAGE and autoradiography. Lane 1, control DNA; lanes 2-4, (-)-MCBI-TMI (254, 1×10^-5 to 1×10^-7 M); lanes 5-7, (-)-duocarmycin SA (2, 1×10^-5 to 1×10^-7 M); lanes 8-11, Sanger G, C, A and T reactions; lanes 12-14, (-)-CC-1065 (1, 1×10^-5 to 1×10^-7 M); lanes 15-17, (-)-MCBI-CDPI2 (266, 1×10^-5 to 1×10^-7 M); lanes 18-20, (-)-MCBI-CDPI1 (262, 1×10^-5 to 1×10^-7 M); lanes 21-23 (-)-MCBI-indole2 (258, 1×10^-5 to 1×10^-7 M).
As indicated, the DNA-agent incubation was conducted at 37° C. for 24 or 48 hours, followed by removal of unbound agent and 30 minutes incubation at 100° C.; 8% denaturing PAGE and autoradiography.
FIG. 17 illustrates thermally-induced strand cleavage of double-stranded DNA (SV40 DNA fragment, 144 bp, nucleotide no. 5238-138, clone w794) after 24 hours incubation of agent-DNA at 25° C. followed by removal of unbound agent and 30 minutes incubation at 100° C; 8% denaturing PAGE and autoradiography. Lane 1, control DNA; lanes 2-4, (+)-duocarmycin SA (2, 1×10^-5 to 1×10^-7 M); lanes 5-7, (+)-MCBI-TMI (254, 1×10^-5 to 1×10^-7 M); lanes 8-11, Sanger G, C, A and T reactions; lanes 12-14, (+)-CC-1065 (1, 1×10^-5 to 1×10^-7 M); lanes 15-17, (+)-MCBI-indole2 (258, 1×10^-5 to 1×10^-7 M); lanes 18-20, (+)-MCBI-CDPI2 (266, 1×10^-5 to 1×10^-7 M).
The DNA alkylation properties of the agents were examined within four 150 base-pair segments of duplex DNA for which comparative results are available for related agents. Four clones of phage M13mp10 were selected for study and contain the SV40 nucleosomal DNA inserts w794 (nucleotide no. 5238-138) and its complement w836 (nucleotide no. 5189-91) and c988 (nucleotide no. 4359-4210) and its complement c820 (nucleotide no. 4201-4356). The alkylation site identification and the assessment of the relative selectivity among the available sites were obtained by thermally-induced strand cleavage of the singly 5'end-labeled duplex DNA after exposure to the agents. Following treatment of the end-labeled duplex DNA with a range of agent concentrations, the unbound agent was removed by EtOH precipitation of the DNA. Redissolution of the DNA in aqueous buffer, thermolysis (100° C., 30 minutes) to induce strand cleavage at the sites of DNA alkylation, denaturing high resolution polyacrylamide gel electrophoresis (PAGE) adjacent to Sanger dideoxynucleotide sequencing standards, and autoradiography led to identification of the DNA cleavage and alkylation sites. The full details of this procedure have been disclosed and discussed elsewhere (10). The DNA alkylation reaction selectivities observed under the incubation conditions of 25° C. (24 hours) for the agents detailed herein have proven identical to the alkylation selectivities observed with shorter or extended reaction periods or when the reactions were conducted at different temperatures (37 or 4° C., 0.5-7 days). As discussed below, the rates and efficiencies but not final relative efficiencies of DNA alkylation were altered by changing the reaction temperatures.

[2] = test system: L1210; test: In vitro cytotoxic activity; type: cell-based; details: for enantiomer distinction (in words): natural vs unnatural enantiomer; for cytotoxic activity of seco precursor vs cyclopropane containing agent: seco precursors; for cytotoxic potency of natural enantiomer relative to unnatural enantiomer: fold, natural more potent than unnatural
[3] = pH 3; cited from earlier work
[4] = Solvolysis reactivity (UV), aqueous buffer-CH3OH; type: physicochemical
Method: The solvolysis was followed spectrophotometrically by UV with the disappearance of the long-wavelength absorption band of the MCBI chromophore ([…]) and with the appearance of a short-wavelength absorption band (266 nm) attributable to seco-N-BOC-MCBI (FIG. 9).
N-BOC-MCBI (238, 0.1 mg) was dissolved in CH3 OH (1.5 mL) and mixed with pH 3 aqueous buffer (1.5 mL). The buffer contained 4:1:20 (v:v:v) 0.1 M citric acid, 0.2 M Na2 HPO4, and H2 O, respectively. The solvolysis solution was sealed and kept at 25° C. protected from light. The UV spectrum was measured at regular intervals every 2 hours during the first day, every 12 hours for another week, and every 24 hours for an additional week. The decrease in the long-wavelength absorption at 324 nm and the increase in the short-wavelength absorption at 266 nm were monitored, FIG. 1.
Similarly, MCBI (240, 0.1 mg) was dissolved in CH3 OH (1.5 mL) and mixed with […] (1.5 mL). The solvolysis solution was sealed and stirred at 25° C. in the dark. The UV spectrum was recorded every 24 hours for two months. The decrease in the long-wavelength absorption at 340 nm and the increase in absorption at 268 nm were monitored, FIG. 1.

COC(=O)c1cc2c([nH]1)C(=O)C=C1N(C(=O)c3cc4cc(OC)c(OC)c(OC)c4[nH]3)CC3CC123 (single isomer, unassigned) [ent-(-)-duocarmycin SA, reference compound]
selectivity and efficiency of DNA alkylation, unnatural enantiomers compared ([1]; 37° C.): slightly more effective

COc1ccc2c(c1)[C@@]13C[C@@H]1CN(C(=O)c1cc4c5c(ccc4[nH]1)N(C(=O)c1cc4c6c(ccc4[nH]1)N(C(N)=O)CC6)CC5)C3=CC2=O [(+)-MCBI-CDPI2]
selectivity and efficiency of DNA alkylation, natural enantiomers compared ([1]; 25° C., 24 hours, 254 vs 2, 266 vs 1): essentially indistinguishable
concentration of detectable DNA alkylation, natural enantiomers [1]: 10^-7 M

COc1ccc2c(c1)[C@@]13C[C@@H]1CN(C(=O)c1cc4cc(NC(=O)c5cc6ccccc6[nH]5)ccc4[nH]1)C3=CC2=O [(+)-MCBI-indole2]
concentration of detectable DNA alkylation, natural enantiomers [1]: 10^-7 M

COc1ccc2c(c1)[C@@]13C[C@@H]1CN(C(=O)OC(C)(C)C)C3=CC2=O [(+)-N-BOC-MCBI, N-(tert-Butyloxycarbonyl)-7-methoxy-1,2,9,9a-tetrahydrocyclopropa[c]benz[e]indol-4-one]
enantiomer distinction (in words) [2]: more potent activity
relative efficiency of DNA alkylation, natural/unnatural enantiomer ([1]; (+)-N-BOC-MCBI/ent-(-)-N-BOC-MCBI, 37° C.): 1-2 ×

COc1ccc2c(c1)[C@]13C[C@H]1CN(C(=O)c1cc4c5c(ccc4[nH]1)N(C(N)=O)CC5)C3=CC2=O [(-)-MCBI-CDPI1]
selectivity and efficiency of DNA alkylation, unnatural enantiomers compared ([1]; 37° C.): nearly indistinguishable

COc1ccc2c(c1)[C@]13C[C@H]1CN(C(=O)c1cc4c5c(ccc4[nH]1)N(C(=O)c1cc4c6c(ccc4[nH]1)N(C(N)=O)CC6)CC5)C3=CC2=O [(-)-MCBI-CDPI2]
selectivity and efficiency of DNA alkylation, unnatural enantiomers compared ([1]; 37° C.): nearly indistinguishable

COc1ccc2c(c1)[C@]13C[C@H]1CN(C(=O)c1cc4cc(OC)c(OC)c(OC)c4[nH]1)C3=CC2=O [(-)-MCBI-TMI]
selectivity and efficiency of DNA alkylation, unnatural enantiomers compared ([1]; 37° C.): nearly indistinguishable

COc1ccc2c(c1)[C@]13C[C@H]1CN(C(=O)c1cc4cc(NC(=O)c5cc6ccccc6[nH]5)ccc4[nH]1)C3=CC2=O [(-)-MCBI-indole2]
selectivity and efficiency of DNA alkylation, unnatural enantiomers compared ([1]; 37° C.): nearly indistinguishable

O=C1C=C2NCC3CC23c2ccccc21 (stereo not drawn) [CBI, 1,2,9,9a-tetrahydrocyclopropa[c]benz[e]indol-4-one]
solvolysis half-life t1/2 of comparison agents [3]: 38.8 days
solvolysis rate constant k of comparison agents [3]: 2.07e-07 s⁻¹

NC(=O)N1CCc2c1ccc1[nH]c(C(=O)N3CCc4c3ccc3[nH]c(C(=O)N5CC6CC67C5=CC(=O)c5ccccc57)cc43)cc21 (stereo not drawn) [CBI-CDPI2, reference compound]
enantiomer distinction (in words) [2]: comparable potencies

COc1ccc2c(O)cc3c(c2c1)C(CCl)CN3C(=O)OC(C)(C)C (stereo not drawn) [Compound 236, 3-(tert-Butyloxycarbonyl)-1-(chloromethyl)-5-hydroxy-8-methoxy-1,2-dihydro-3H-benz[e]indole]
cytotoxic activity of seco precursor vs cyclopropane containing agent [2]: indistinguishable

COc1ccc2c(c1)C13CC1CNC3=CC2=O (stereo not drawn) [Compound 240, 7-Methoxy-1,2,9,9a-tetrahydrocyclopropa[c]benz[e]indol-4-one]
acceleration of rate of solvolysis by C7 methoxy group vs. corresponding CBI agent ([4]; acid-catalyzed solvolysis, pH 3): 1.6 ×
solvolysis rate constant k ([4]; pH 3, 50% CH3OH-buffer, 25° C.): 5.76e-07 s⁻¹
half-life ([4]; pH 3, 50% CH3OH-buffer, 25° C., read-out: solvolysis half-life t1/2 (converted)): 13.9 days
solvolysis reactivity relative to DSA ([4]; pH 3, more reactive than DSA): 6-7 ×
relative solvolysis reactivity (in words) ([4]; pH 3, vs. agent named): only slightly more reactive than CBI; also recorded: less reactive than CPI

COc1ccc2c(O)cc3c(c2c1)C(CCl)CN3C(=O)c1cc2cc(OC)c(OC)c(OC)c2[nH]1 (stereo not drawn) [Compound 252]
cytotoxic activity of seco precursor vs cyclopropane containing agent [2]: indistinguishable

COc1ccc2c(O)cc3c(c2c1)C(CCl)CN3C(=O)c1cc2cc(NC(=O)c3cc4ccccc4[nH]3)ccc2[nH]1 (stereo not drawn) [Compound 256]
cytotoxic activity of seco precursor vs cyclopropane containing agent [2]: indistinguishable

COc1ccc2c(c1)C13CC1CN(C(=O)c1cc4cc(NC(=O)c5cc6ccccc6[nH]5)ccc4[nH]1)C3=CC2=O (stereo not drawn) [Compound 258]
cytotoxic potency of natural enantiomer relative to unnatural enantiomer [2]: 1-3 ×
enantiomer distinction (in words) [2]: nearly equipotent
concentration of detectable DNA alkylation, unnatural enantiomers [1]: 10^-6 to 10^-7 M

COc1ccc2c(O)cc3c(c2c1)C(CCl)CN3C(=O)c1cc2c3c(ccc2[nH]1)N(C(N)=O)CC3 (stereo not drawn) [Compound 260]
cytotoxic activity of seco precursor vs cyclopropane containing agent [2]: indistinguishable

COc1ccc2c(O)cc3c(c2c1)C(CCl)CN3C(=O)c1cc2c3c(ccc2[nH]1)N(C(=O)c1cc2c4c(ccc2[nH]1)N(C(N)=O)CC4)CC3 (stereo not drawn) [Compound 264]
cytotoxic activity of seco precursor vs cyclopropane containing agent [2]: indistinguishable

COc1ccc2c(c1)C13CC1CN(C(=O)c1cc4c5c(ccc4[nH]1)N(C(=O)c1cc4c6c(ccc4[nH]1)N(C(N)=O)CC6)CC5)C3=CC2=O (stereo not drawn) [Compound 266]
cytotoxic potency of natural enantiomer relative to unnatural enantiomer [2]: 1-3 ×
enantiomer distinction (in words) [2]: essentially indistinguishable
enantiomer distinction (in words) ([2]; listed as MCBI-CDPI2): nearly equipotent
concentration of detectable DNA alkylation, unnatural enantiomers [1]: 10^-6 to 10^-7 M

CC(C)(C)OC(=O)N1CC2CC23C1=CC(=O)c1ccccc13 (stereo not drawn) [N-BOC-CBI]
solvolysis half-life t1/2 of comparison agents [3]: 5.54 days

Cc1c[nH]c2c1C13CC1CN(C(=O)OC(C)(C)C)C3=CC2=O (stereo not drawn) [N-BOC-CPI]
solvolysis half-life t1/2 of comparison agents [3]: 1.53 days

COc1c(O)c2c(c3cc(C(=O)N4CCc5c4c(O)c(OC)c4[nH]c(C(=O)N6CC7CC78C6=CC(=O)c6[nH]cc(C)c68)cc54)[nH]c13)CCN2C(N)=O (stereo not drawn) [ent-(-)-CC-1065, reference compound]
selectivity and efficiency of DNA alkylation, unnatural enantiomers compared ([1]; 37° C.): nearly indistinguishable
